These are literature values, as cited in patent US20210283075A1, “METHODS OF TREATING ATTENTION DEFICIT HYPERACTIVITY DISORDER” (Ovid Therapeutics, Inc., priority 2018, published 2021).

Series [1] concerns the target dopamine D3 (Homo sapiens, UniProt P35462).
Series [2] relates to brain-derived neurotrophic factor (BDNF). The following applies: hypothalamus.
For series [3] the following is noted: compared to placebo.
Series [4] concerns the target T1, 5-HT2C (Homo sapiens, UniProt P28335).
T1 sequence (P28335 33-458): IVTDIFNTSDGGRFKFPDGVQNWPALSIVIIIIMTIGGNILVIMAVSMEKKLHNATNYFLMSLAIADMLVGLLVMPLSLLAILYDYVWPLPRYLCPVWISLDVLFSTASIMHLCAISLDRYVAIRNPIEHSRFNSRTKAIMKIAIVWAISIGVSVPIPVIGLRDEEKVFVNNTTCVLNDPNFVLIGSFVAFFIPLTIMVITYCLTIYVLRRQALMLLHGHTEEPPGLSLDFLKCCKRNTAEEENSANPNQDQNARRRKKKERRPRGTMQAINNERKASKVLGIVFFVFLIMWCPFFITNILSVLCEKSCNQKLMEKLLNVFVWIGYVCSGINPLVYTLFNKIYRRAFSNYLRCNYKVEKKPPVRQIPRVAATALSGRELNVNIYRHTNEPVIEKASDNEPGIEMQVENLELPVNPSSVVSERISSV

For series [5] the following is noted: compared to lorazepam.
The target of series [6] is sigma-1 receptor (Homo sapiens, UniProt Q99720).
Sequence of sigma-1 receptor (Q99720 whole entry, species assumed): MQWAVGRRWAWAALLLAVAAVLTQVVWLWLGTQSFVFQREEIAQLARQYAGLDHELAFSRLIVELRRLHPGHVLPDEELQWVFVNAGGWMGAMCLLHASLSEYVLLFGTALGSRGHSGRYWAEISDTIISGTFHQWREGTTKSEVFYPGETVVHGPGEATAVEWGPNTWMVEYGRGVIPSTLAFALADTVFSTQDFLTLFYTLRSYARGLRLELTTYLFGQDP

Sequence of dopamine D3 (P35462 whole entry): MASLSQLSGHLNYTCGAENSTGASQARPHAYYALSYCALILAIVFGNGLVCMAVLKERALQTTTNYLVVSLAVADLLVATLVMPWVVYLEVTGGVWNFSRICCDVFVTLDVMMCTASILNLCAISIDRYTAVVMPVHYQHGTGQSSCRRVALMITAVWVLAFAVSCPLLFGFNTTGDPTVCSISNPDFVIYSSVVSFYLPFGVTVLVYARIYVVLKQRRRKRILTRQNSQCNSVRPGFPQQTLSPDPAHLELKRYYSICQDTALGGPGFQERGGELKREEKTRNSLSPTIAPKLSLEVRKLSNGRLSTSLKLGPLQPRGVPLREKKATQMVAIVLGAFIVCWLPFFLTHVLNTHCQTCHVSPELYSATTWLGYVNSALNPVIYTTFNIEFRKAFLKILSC

For `CCCCSc1ccc(C(SCCN(C)C)c2ccccc2)cc1` (stereo not shown) [Captodiamine, 2-[(4-butylsulfanylphenyl)-phenyl-methyl]sulfanyl-N,N-dimethylethanamine], the “activity at dopamine D3” value in series [1] was “dopamine D3 agonist”. For the same molecule, the BDNF protein levels result in series [2] is on record as “increase”. Further, in series [3], the “severity of benzodiazepine withdrawal symptoms” value is reported as “lower severity of benzodiazepine withdrawal symptoms”. The “activity at 5-HT2C” value in series [4] is recorded as 5-HT2C antagonist. Moreover, the “concentration and dexterity when driving” value in series [5] was “improved the concentration and dexterity”. For the same molecule, in series [5] (when driving), the tendency to drowsiness result is on record as “without inducing a tendency to drowsiness”. For the same molecule, the “activity at sigma-1 receptor” value in series [6] is “sigma-1 receptor agonist”.
